Drawing on ChEMBL document CHEMBL1139017, “Synthesis and biological activity of (+)-hedychilactone A and its analogs from (+)-sclareolide” (Bioorg Med Chem Lett, 2006), this text covers IC50 for 13 compounds.

As a reminder, the IC50 is the concentration that inhibits the measured activity by half. Low readings indicate greater potency in that assay, high ones weaker potency in that assay.

In brackets after ≈: the same amount, converted by molar mass. Bounds are passed on as bounds.

In one test the test system is U-87 MG. The experiment in a line: Cytotoxicity against U87 cancer cell line. Type of test: functional, cell-based, U-87MG ATCC. The following applies: Homo sapiens.
The subject of another test is U373 MG. The experiment in a line: Cytotoxicity against U373 cancer cell line. Type of test: functional, cell-based, U-373MG ATCC. The note with it: Homo sapiens.
For a further test, the system named is SiHa. In words: Cytotoxicity against SiHa cancer cell line. Type of test: functional, cell-based. The note with it: Homo sapiens.
Another test has as its system SK-OV-3. In words: Cytotoxicity against sk-ov-3 cancer cell line. The following applies: Homo sapiens. It is filed as functional, cell-based.
A further test deals with B16. In words: Cytotoxicity against B16 cancer cell line. Type of test: functional, cell-based. The following applies: Mus musculus.
The subject of test [1] is HUVEC. The experiment in a line: Antiangiogenic activity against HUVEC cells. Type of test: functional, cell-based. The note with it: Homo sapiens.
For test [2], the system named is HUVEC. The experiment in a line: Inhibition of NO production in HUVEC cells. The following applies: Homo sapiens. Type of test: functional, cell-based.

In the case of `C=C1CC[C@H]2C(C)(C)CCC[C@]2(C)[C@H]1C/C=C1/CCOC1=O`, the IC50 was more than 50 µg/mL with U-87 MG; 40.4 µg/mL (≈ 134 µM) in the test on U373 MG; more than 50 µg/mL in the test on SiHa; 4.3 µg/mL (≈ 14.2 µM) in the test on SK-OV-3; 17.6 µg/mL (≈ 58.2 µM) in the test on B16; 2.2 µg/mL (≈ 7.27 µM) with HUVEC [1]. This compound also yielded a half-inhibitory concentration (IC50) in the test with HUVEC [2] of 4.5 µg/mL (≈ 14.9 µM).

Turning to `CC1=CC[C@H]2C(C)(C)CCC[C@]2(C)[C@H]1C/C=C1\CCOC1=O`, the half-maximal inhibitory concentration (IC50) in the test with U-87 MG came to 9.2 µg/mL (≈ 30.4 µM); in the test with U373 MG, 4.7 µg/mL (≈ 15.5 µM); with SiHa it was 17 µg/mL (≈ 56.2 µM); in the test with SK-OV-3, 6 µg/mL (≈ 19.8 µM); with B16, 9.1 µg/mL (≈ 30.1 µM); with HUVEC [1] it was 2.6 µg/mL (≈ 8.6 µM). For the same compound, in the test on HUVEC [2], the half-inhibitory concentration (IC50) is 18 µg/mL (≈ 59.5 µM).

Consider `C=C1C(=O)C[C@H]2C(C)(C)CCC[C@]2(C)[C@H]1C/C=C1\CCOC1=O`, for which the IC50 was 1.7 µg/mL (≈ 5.37 µM) with U-87 MG; 3.7 µg/mL (≈ 11.7 µM) with U373 MG; 7 µg/mL (≈ 22.1 µM) in the test with SiHa; 0.9 µg/mL (≈ 2.84 µM) in the test with SK-OV-3; 3.4 µg/mL (≈ 10.7 µM) in the test on B16; 1.2 µg/mL (≈ 3.79 µM) in the test on HUVEC [1]. The same compound registered an IC50 in the test with HUVEC [2] of 0.7 µg/mL (≈ 2.21 µM).

`CC1=CC[C@H]2C(C)(C)CCC[C@]2(C)[C@H]1CC=O`: the IC50 with U-87 MG is 11.7 µg/mL (≈ 49.9 µM); in the test on U373 MG, 20.6 µg/mL (≈ 87.9 µM); with SiHa, 20.9 µg/mL (≈ 89.2 µM); with SK-OV-3, 23.5 µg/mL (≈ 100 µM); in the test on B16 it was 21.8 µg/mL (≈ 93 µM); in the test with HUVEC [1], 4.8 µg/mL (≈ 20.5 µM). The same compound yielded an IC50 in the test with HUVEC [2] of 6 µg/mL (≈ 25.6 µM).

`C=C1[C@H](O)C[C@H]2C(C)(C)CCC[C@]2(C)[C@H]1C/C=C1/CCOC1=O`: the IC50 is more than 50 µg/mL in the test with U-87 MG; more than 50 µg/mL in the test on U373 MG; more than 50 µg/mL with SiHa; 10.1 µg/mL (≈ 31.7 µM) with SK-OV-3; more than 50 µg/mL in the test with B16; 12.4 µg/mL (≈ 38.9 µM) with HUVEC [1]. This compound returned a 50% inhibitory concentration (IC50) in the test on HUVEC [2] of 8 µg/mL (≈ 25.1 µM).

Regarding `C=C1CC[C@H]2C(C)(C)CCC[C@]2(C)[C@H]1CC=O`, the IC50 worked out at 4.1 µg/mL (≈ 17.5 µM) in the test on U-87 MG; 7 µg/mL (≈ 29.9 µM) in the test with U373 MG; 14.5 µg/mL (≈ 61.9 µM) with SiHa; 3.1 µg/mL (≈ 13.2 µM) in the test on SK-OV-3; 4 µg/mL (≈ 17.1 µM) in the test on B16; 2.9 µg/mL (≈ 12.4 µM) in the test on HUVEC [1]. This compound gave an IC50 with HUVEC [2] of more than 25 µg/mL.

For the compound `C=C1CC[C@H]2C(C)(C)CCC[C@]2(C)[C@H]1C/C=C1\CCOC1=O`, the IC50 with U-87 MG is 5 µg/mL (≈ 16.5 µM); with U373 MG, 15.1 µg/mL (≈ 49.9 µM); with SiHa it was 20.2 µg/mL (≈ 66.8 µM); in the test on SK-OV-3, 2 µg/mL (≈ 6.61 µM); in the test with B16 it was 17.6 µg/mL (≈ 58.2 µM); with HUVEC [1] it was 1.7 µg/mL (≈ 5.62 µM). Moreover, 5 µg/mL (≈ 16.5 µM) corresponded to half-maximal inhibition in the test with HUVEC [2] (IC50).

In the case of `CC1=CC[C@H]2C(C)(C)CCC[C@]2(C)[C@H]1C/C=C1/CCOC1=O`, the IC50 with U-87 MG is more than 50 µg/mL; with U373 MG, more than 50 µg/mL; with SiHa, more than 50 µg/mL; in the test on SK-OV-3 it was more than 50 µg/mL; with B16, more than 50 µg/mL; with HUVEC [1], 4.3 µg/mL (≈ 14.2 µM). Besides, in the test on HUVEC [2], the IC50 is more than 25 µg/mL.

For `C=C1[C@H](O)C[C@H]2C(C)(C)CCC[C@]2(C)[C@H]1C/C=C1\CCOC1=O`, the 50% inhibitory concentration (IC50) in the test on U-87 MG was determined as 12.7 µg/mL (≈ 39.9 µM); in the test on U373 MG it was 14.9 µg/mL (≈ 46.8 µM); in the test on SiHa, 32 µg/mL (≈ 100 µM); in the test on SK-OV-3, 12.4 µg/mL (≈ 38.9 µM); with B16, 16.7 µg/mL (≈ 52.4 µM); in the test on HUVEC [1] it was 6.9 µg/mL (≈ 21.7 µM). In addition, it took 13.2 µg/mL (≈ 41.4 µM) to reach half-maximal inhibition in the test with HUVEC [2] (IC50).

Take `C=C1C(=O)C[C@H]2C(C)(C)CCC[C@]2(C)[C@H]1C/C=C1/CCOC1=O`: the IC50 is 1.43 µg/mL (≈ 4.52 µM) in the test on U-87 MG; 0.6 µg/mL (≈ 1.9 µM) with U373 MG; 3.4 µg/mL (≈ 10.7 µM) in the test with SiHa; 0.8 µg/mL (≈ 2.53 µM) in the test on SK-OV-3; 1.5 µg/mL (≈ 4.74 µM) with B16; 0.6 µg/mL (≈ 1.9 µM) in the test with HUVEC [1]. The compound also came in with a 50% inhibitory concentration (IC50) in the test on HUVEC [2] of 0.9 µg/mL (≈ 2.84 µM).

In the case of `C=C1[C@@H](O)C[C@H]2C(C)(C)CCC[C@]2(C)[C@H]1C/C=C1/CCOC1=O`, the IC50 was more than 50 µg/mL with U-87 MG; 15.7 µg/mL (≈ 49.3 µM) with U373 MG; 31.7 µg/mL (≈ 99.5 µM) in the test on SiHa; 5.3 µg/mL (≈ 16.6 µM) in the test with SK-OV-3; more than 50 µg/mL in the test with B16; 13.8 µg/mL (≈ 43.3 µM) in the test with HUVEC [1]. The IC50 in the test with HUVEC [2] came out at 11.2 µg/mL (≈ 35.2 µM).

Turning to `C=C1[C@@H](O)C[C@H]2C(C)(C)CCC[C@]2(C)[C@H]1C/C=C1\CCOC1=O` [HEDYCHILACTONE A], the IC50 in the test on U-87 MG was 36.8 µg/mL (≈ 116 µM); with U373 MG, more than 50 µg/mL; in the test on SiHa, more than 50 µg/mL; with SK-OV-3, 8.7 µg/mL (≈ 27.3 µM); in the test with B16, more than 50 µg/mL; with HUVEC [1], 12.6 µg/mL (≈ 39.6 µM). This compound showed a concentration for half-maximal inhibition (IC50) with HUVEC [2] of 11 µg/mL (≈ 34.5 µM).

With `CC(=O)O[C@H]1C(=O)[C@@]2(C)[C@H]([C@H](OC(=O)c3ccccc3)[C@]3(O)C[C@H](OC(=O)[C@H](O)[C@@H](NC(=O)c4ccccc4)c4ccccc4)C(C)=C1C3(C)C)[C@]1(OC(C)=O)CO[C@@H]1C[C@@H]2O` [PACLITAXEL], the IC50 in the test with U-87 MG is 3.2 µg/mL (≈ 3.75 µM); in the test on SiHa, 1.3 µg/mL (≈ 1.52 µM); in the test on SK-OV-3 it was 8.7 µg/mL (≈ 10.2 µM); with B16 it was less than 0.1 µg/mL; with HUVEC [1], 0.3 µg/mL (≈ 0.351 µM).
